Measurements: PubChem BioAssay AID2060331 (Molecular Pharmacology Branch, DTP, NCI, 2025)
Values joined by “and” are separate entries in the source; they are usually repeats but may differ in a detail not shown here. Equal entries are not always repeated. Blank lines part the entries; values can stand above or below the molecule they belong to.

Test system: Hs578T multi-cell spheroids, viability
Test: Anticancer human tumor Hs578T cell line growth inhibition [IpAb];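 also: drug exposure lasted 7 days before readout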
Conditions: for viability, T/C: stronger effect = lower value
Summary of the method: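 Spheroids of 60% malignant cells, 25% HUVEC and 15% MSC were exposed to targeted agents combined with ipatasertib or abemaciclib. Doses started at or near clinical Cmax (10 microM when unknown) and fell in half-log steps.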

[1] = curve of first compound, second compound 0.01 µM
[2] = curve of first compound, second compound 0.0316 µM
[3] = curve of first compound, second compound 0.1 µM
[4] = curve of first compound, second compound 0.316 µM
[5] = curve of first compound, second compound 1 µM
[6] = second compound 0.01 µM, first compound 0.0316 µM
[7] = second compound 0.01 µM, first compound 0.1 µM
[8] = second compound 0.01 µM, first compound 0.316 µM
[9] = second compound 0.01 µM, first compound 1 µM
[10] = second compound 0.0316 µM, first compound 0.0316 µM
[11] = second compound 0.0316 µM, first compound 0.1 µM
[12] = second compound 0.0316 µM, first compound 0.316 µM
[13] = second compound 0.0316 µM, first compound 1 µM
[14] = second compound 0.1 µM, first compound 0.0316 µM
[15] = second compound 0.1 µM, first compound 0.1 µM
[16] = second compound 0.1 µM, first compound 0.316 µM
[17] = second compound 0.1 µM, first compound 1 µM
[18] = second compound 0.316 µM, first compound 0.0316 µM
[19] = second compound 0.316 µM, first compound 0.1 µM
[20] = second compound 0.316 µM, first compound 0.316 µM
[21] = second compound 0.316 µM, first compound 1 µM
[22] = second compound 1 µM, first compound 0.0316 µM
[23] = second compound 1 µM, first compound 0.1 µM
[24] = second compound 1 µM, first compound 0.316 µM
[25] = second compound 1 µM, first compound 1 µM

SMILES: Cn1ncc(Cl)c1-c1cc(C(=O)NC(CN)Cc2cccc(F)c2)sc1Cl (stereo not given) + CCN1CCN(Cc2ccc(Nc3ncc(F)c(-c4cc(F)c5nc(C)n(C(C)C)c5c4)n3)nc2)CC1
IC50 [1]: 1410 nM
IC50 [2]: 1330 nM
IC50 [3]: 791 nM
IC50 [4]: 829 nM
IC50 [5]: 1210 nM
viability, T/C [6]: 92.1%
viability, T/C [7]: 83.3%
viability, T/C [8]: 67.1%
viability, T/C [9]: 49.1%
viability, T/C (second compound 0.01 µM, first compound 3.16 µM): 46.8%
viability, T/C (second compound 0.01 µM, first compound 10 µM): 0.26%
viability, T/C [10]: 86%
viability, T/C [11]: 76.8%
viability, T/C [12]: 65.2%
viability, T/C [13]: 51.2%
viability, T/C (second compound 0.0316 µM, first compound 3.16 µM): 42%
viability, T/C (second compound 0.0316 µM, first compound 10 µM): 0.24%
viability, T/C [14]: 80.5%
viability, T/C [15]: 67.5%
viability, T/C [16]: 52.9%
viability, T/C [17]: 42.5%
viability, T/C (second compound 0.1 µM, first compound 3.16 µM): 42.5%
viability, T/C (second compound 0.1 µM, first compound 10 µM): 0.24%
viability, T/C [18]: 81.2%
viability, T/C [19]: 72%
viability, T/C [20]: 56.7%
viability, T/C [21]: 47.6%
viability, T/C (second compound 0.316 µM, first compound 3.16 µM): 33.9%
viability, T/C (second compound 0.316 µM, first compound 10 µM): 0.21%
viability, T/C [22]: 90%
viability, T/C [23]: 76.6%
viability, T/C [24]: 67.3%
viability, T/C [25]: 60.1%
viability, T/C (second compound 1 µM, first compound 3.16 µM): 7.93%
viability, T/C (second compound 1 µM, first compound 10 µM): 0.46%

SMILES: COc1c(OCCCN2CCOCC2)ccc2c3n(c(=NC(=O)c4cnc(N)nc4)nc12)CCN3 + CCN1CCN(Cc2ccc(Nc3ncc(F)c(-c4cc(F)c5nc(C)n(C(C)C)c5c4)n3)nc2)CC1
IC50 [1]: 22.8 nM
IC50 [2]: 20.7 nM
IC50 [3]: 15.2 nM
IC50 [4]: 17.1 nM
IC50 [5]: 25.3 nM
viability, T/C (second compound 0.01 µM, first compound 0.00316 µM): 88.7%
viability, T/C (second compound 0.01 µM, first compound 0.01 µM): 65.9%
viability, T/C [6]: 43.3%
viability, T/C [7]: 26.9%
viability, T/C [8]: 16%
viability, T/C [9]: 8.09%
viability, T/C (second compound 0.0316 µM, first compound 0.00316 µM): 75.6%
viability, T/C (second compound 0.0316 µM, first compound 0.01 µM): 63.6%
viability, T/C [10]: 40.5%
viability, T/C [11]: 28%
viability, T/C [12]: 11.6%
viability, T/C [13]: 7.23%
viability, T/C (second compound 0.1 µM, first compound 0.00316 µM): 75.8%
viability, T/C (second compound 0.1 µM, first compound 0.01 µM): 53.5%
viability, T/C [14]: 40.9%
viability, T/C [15]: 26.8%
viability, T/C [16]: 13.8%
viability, T/C [17]: 6.99%
viability, T/C (second compound 0.316 µM, first compound 0.00316 µM): 82.1%
viability, T/C (second compound 0.316 µM, first compound 0.01 µM): 55.8%
viability, T/C [18]: 42.1%
viability, T/C [19]: 26.1%
viability, T/C [20]: 15.5%
viability, T/C [21]: 7.2%
viability, T/C (second compound 1 µM, first compound 0.00316 µM): 91.5%
viability, T/C (second compound 1 µM, first compound 0.01 µM): 67.4%
viability, T/C [22]: 43.1%
viability, T/C [23]: 32.5%
viability, T/C [24]: 20.1%
viability, T/C [25]: 9.99%

SMILES: C=CCn1c(=O)c2cnc(Nc3ccc(N4CCN(C)CC4)cc3)nc2n1-c1cccc(C(C)(C)O)n1
viability, T/C (compound 0.0316 µM): 98.6% and 100%
viability, T/C (compound 0.1 µM): 77.7% and 83.3%
viability, T/C (compound 0.316 µM): 46.2% and 47.5%
viability, T/C (compound 1 µM): 26% and 25.8%
viability, T/C (compound 3.16 µM): 15.1% and 19.1%
viability, T/C (compound 10 µM): 17.7% and 17.6%
IC50 (curve of compound): 275 nM and 295 nM

SMILES: Cc1nc(NC(=O)N2CCCC2C(N)=O)sc1-c1ccnc(C(C)(C)C(F)(F)F)c1 (stereo not given)
viability, T/C (compound 0.0316 µM): 96.6% and 110%
viability, T/C (compound 0.1 µM): 93.1% and 95.3%
viability, T/C (compound 0.316 µM): 79.6% and 79.2%
viability, T/C (compound 1 µM): 60% and 58.8%
viability, T/C (compound 3.16 µM): 42.5% and 45.5%
viability, T/C (compound 10 µM): 13.9% and 16.4%
IC50 (curve of compound): 1930 nM and 1900 nM

SMILES: Cn1ncc(Cl)c1-c1cc(C(=O)NC(CN)Cc2cccc(F)c2)sc1Cl (stereo not given)
viability, T/C (compound 0.0316 µM): 90.4% and 98.8%
viability, T/C (compound 0.1 µM): 91% and 85.1%
viability, T/C (compound 0.316 µM): 72.4% and 75.8%
viability, T/C (compound 1 µM): 60.7% and 63.9%
viability, T/C (compound 3.16 µM): 49.9% and 56.1%
viability, T/C (compound 10 µM): 0.22% and 0.31%
IC50 (curve of compound): 2180 nM and 2650 nM

The next lines start with results.

IC50 (curve of compound): > 100 nM
SMILES: Cn1ncnc1[C@H]1c2n[nH]c(=O)c3cc(F)cc(c23)N[C@@H]1c1ccc(F)cc1
viability, T/C (compound 0.000316 µM): 94% and 104%
viability, T/C (compound 0.001 µM): 101% and 102%
viability, T/C (compound 0.00316 µM): 88% and 103%
viability, T/C (compound 0.01 µM): 91.7% and 96.2%
viability, T/C (compound 0.0316 µM): 90.2% and 96.4%
viability, T/C (compound 0.1 µM): 82.2% and 95.2%

IC50 (curve of compound): 7.72 nM and 9.02 nM
SMILES: CC(C)n1nc(-c2ccc3oc(N)nc3c2)c2c(N)ncnc21
viability, T/C (compound 0.000316 µM): 95.3% and 94.5%
viability, T/C (compound 0.001 µM): 92.4% and 104%
viability, T/C (compound 0.00316 µM): 74.8% and 76.7%
viability, T/C (compound 0.01 µM): 43.1% and 49.1%
viability, T/C (compound 0.0316 µM): 20.7% and 20.5%
viability, T/C (compound 0.1 µM): 15.8% and 14.6%
